Values joined by “and” are separate entries in the source; they are usually repeats but may differ in a detail not shown here. Identical values can stand only once. Inconclusive results and toxic doses are left out. Rule as the data show it: active = T/C of 150% or more; inactive = T/C below 125%.
Test system: L1210 leukemia ip in BDF1 mice, survival T/C
Assay: NCI In Vivo Anticancer Drug Screen. Data for tumor model L1210 Leukemia (intraperitoneal) in B6D2F1 (BDF1) mice
Details: endpoint: mean survival time, higher = longer survival
Summary of the method: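 Transplanted-tumor mice were given test agent; controls received vehicle only. Survival readings from the two groups were divided (treated over control).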

[1] = dose: 100.0 mg/kg/injection, schedule: Q04DX002 (ip), vehicle: saline
[2] = dose: 200.0 mg/kg/injection, schedule: Q04DX002 (ip), vehicle: saline

Measured: T/C

Cc1ccc([P+](Cc2ccc(Cl)cc2Cl)(c2ccc(C)cc2)c2ccc(C)cc2)cc1
inactive: dose: 6.25 mg/kg/injection, schedule: Q04DX003 (ip), vehicle: Klucel (hydroxypropylcellulose) (HPC) 103 % of control | dose: 12.5 mg/kg/injection, schedule: Q04DX003 (ip), vehicle: Klucel (hydroxypropylcellulose) (HPC) 92 % of control

CCOC(=O)CNc1cccc(C)c1
inactive: dose: 100.0 mg/kg/injection, schedule: Q04DX002 (ip), vehicle: Klucel (hydroxypropylcellulose) (HPC) 100 % of control | dose: 200.0 mg/kg/injection, schedule: Q04DX002 (ip), vehicle: Klucel (hydroxypropylcellulose) (HPC) 110 % of control | dose: 400.0 mg/kg/injection, schedule: Q04DX002 (ip), vehicle: Klucel (hydroxypropylcellulose) (HPC) 107 % of control

O=C(O)Cc1ccc2c(c1)OCO2.[Ag]
inactive: dose: 9.38 mg/kg/injection, schedule: Q01DX001 (ip), vehicle: steriod suspending solution 95 % of control | dose: 18.75 mg/kg/injection, schedule: Q01DX001 (ip), vehicle: steriod suspending solution 94 % of control | dose: 37.5 mg/kg/injection, schedule: Q01DX001 (ip), vehicle: steriod suspending solution 92 % of control

CCOC(=O)N(OC(C)=O)P(=O)(N1CC1(C)C)N1CC1(C)C (stereo unspecified)
inactive: [1] 100 % of control | [2] 123 % of control

CCCCCCCCN1N=CC(CC)C1CCC (stereo unspecified)
inactive: dose: 50.0 mg/kg/injection, schedule: Q01DX001 (ip), vehicle: carboxymethylcellulose (CMC) 105 % of control | dose: 100.0 mg/kg/injection, schedule: Q01DX001 (ip), vehicle: carboxymethylcellulose (CMC) 88 % of control | dose: 200.0 mg/kg/injection, schedule: Q01DX001 (ip), vehicle: carboxymethylcellulose (CMC) 92 % of control

Cc1ccc(S(=O)(=O)c2ccc(C)c(N)c2)cc1N
inactive: [1] 105 % of control | [2] 99 % of control | dose: 400.0 mg/kg/injection, schedule: Q04DX002 (ip), vehicle: saline 96 % of control

CC1CCCCN1Cc1ccccc1COC(=O)c1cccc(Cl)c1 (stereo unspecified)
inactive: dose: 25.0 mg/kg/injection, schedule: Q04DX002 (ip), vehicle: other 98 % of control | dose: 50.0 mg/kg/injection, schedule: Q04DX002 (ip), vehicle: other 113 % of control | dose: 50.0 mg/kg/injection, schedule: Q04DX002 (ip), vehicle: saline with Tween-80 91 % of control | dose: 100.0 mg/kg/injection, schedule: Q04DX002 (ip), vehicle: other 88 % of control | dose: 100.0 mg/kg/injection, schedule: Q04DX002 (ip), vehicle: saline with Tween-80 94 % of control and 86 % of control | dose: 400.0 mg/kg/injection, schedule: Q04DX002 (ip), vehicle: saline with Tween-80 101 % of control

CCC(C)C(NC(=O)C1CSC(C)(C)N1C=O)C(=O)OC (stereo unspecified)
inactive: dose: 100.0 mg/kg/injection, schedule: Q04DX003 (ip), vehicle: saline 106 % of control | dose: 200.0 mg/kg/injection, schedule: Q04DX003 (ip), vehicle: saline 97 % of control | dose: 400.0 mg/kg/injection, schedule: Q04DX003 (ip), vehicle: saline 103 % of control

N#CCCCCN=[N+]=[N-]
inactive: dose: 37.5 mg/kg/injection, schedule: Q04DX003 (ip), vehicle: saline 87 % of control | dose: 75.0 mg/kg/injection, schedule: Q04DX003 (ip), vehicle: saline 104 % of control | dose: 150.0 mg/kg/injection, schedule: Q04DX003 (ip), vehicle: saline 98 % of control

N/N=C\C=N\N
inactive: dose: 15.0 mg/kg/injection, schedule: Q01DX Z (ip), vehicle: saline 107 % of control | dose: 30.0 mg/kg/injection, schedule: Q01DX Z (ip), vehicle: saline 107 % of control | dose: 60.0 mg/kg/injection, schedule: Q01DX Z (ip), vehicle: saline 107 % of control

Reference: PubChem BioAssay AID248 (DTP/NCI, 2004)
